In US9738634B2, “Heterocyclic amide compound and herbicide” (SYNGENTA PARTICIPATIONS AG, priority 2013, dated 2017):

Columns and labels:
Type in all cases: in vivo
beet = assay: Test Example 3: soil treatment, effect on crop; f: beet; settings: soil treatment, treatment dosage 320 g/ha
Summary of the method: (§1)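 Crop and weed responses were judged three weeks after a uniform surface spray of the water-diluted emulsion at the given g/ha rate. Seeds sat beneath about 1.5 cm of sterilized diluvial soil, and boxes stood in a greenhouse at 25 to 30° C.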

chickweed = assay: Test Example 3: weedkilling efficacy through soil treatment; N: chickweed; settings: soil treatment, treatment dosage 320 g/ha
Summary of the method: as §1

barnyard grass [1] = assay: Test Example 1: weedkilling efficacy, preemergent weed treatment in the submerged state; A: barnyard grass; settings: treatment dosage 320 g/ha
Summary of the method: (§2)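 Pots of alluvial soil were flooded to a 4 cm depth. Mixed weed seeds were sown and 2.5 leaf-stage rice seedlings transplanted. On sowing day, water-diluted emulsion was applied to the water surface (dose in g/ha). After 3 weeks at 25–30 °C, effects were rated.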

oval-leafed pondweed [2] = assay: Test Example 2: weedkilling efficacy, growth period weed treatment in the submerged state; C: oval-leafed pondweed; settings: treatment dosage 320 g/ha
Summary of the method: (§3)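 Weeds treated at the 1-2 leaf stage by application of diluted emulsion onto floodwater (4 cm depth, alluvial soil) at specified g/ha. Grown in greenhouse at 25 to 30° C; herbicidal effect rated three weeks after treatment.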

redroot pigweed = assay: Test Example 3: weedkilling efficacy through soil treatment; L: redroot pigweed; settings: soil treatment, treatment dosage 320 g/ha
Summary of the method: as §1

soybean = assay: Test Example 3: soil treatment, effect on crop; d: soybean; settings: soil treatment, treatment dosage 320 g/ha
Summary of the method: as §1

common wind-grass = assay: Test Example 3: weedkilling efficacy through soil treatment; J: common wind-grass; settings: soil treatment, treatment dosage 320 g/ha
Summary of the method: as §1

crabgrass = assay: Test Example 3: weedkilling efficacy through soil treatment; D: crabgrass; settings: soil treatment, treatment dosage 320 g/ha
Summary of the method: as §1

oval-leafed pondweed [3] = assay: Test Example 1: weedkilling efficacy, preemergent weed treatment in the submerged state; C: oval-leafed pondweed; settings: treatment dosage 320 g/ha
Summary of the method: as §2

green foxtail = assay: Test Example 3: weedkilling efficacy through soil treatment; E: green foxtail; settings: soil treatment, treatment dosage 320 g/ha
Summary of the method: as §1

directly sown rice = assay: Test Example 3: soil treatment, effect on crop; b: directly sown rice; settings: soil treatment, treatment dosage 320 g/ha
Summary of the method: as §1

corn = assay: Test Example 3: soil treatment, effect on crop; c: corn; settings: soil treatment, treatment dosage 320 g/ha
Summary of the method: as §1

transplanted rice = assay: Test Example 1: preemergent weed treatment in the submerged state, effect on crop; a: transplanted rice; settings: treatment dosage 320 g/ha
Summary of the method: as §2

bulrush [4] = assay: Test Example 1: weedkilling efficacy, preemergent weed treatment in the submerged state; B: bulrush; settings: treatment dosage 320 g/ha
Summary of the method: as §2

wheat = assay: Test Example 3: soil treatment, effect on crop; e: wheat; settings: soil treatment, treatment dosage 320 g/ha
Summary of the method: as §1

rapeseed = assay: Test Example 3: soil treatment, effect on crop; g: rapeseed; settings: soil treatment, treatment dosage 320 g/ha
Summary of the method: as §1

bulrush [5] = assay: Test Example 2: weedkilling efficacy, growth period weed treatment in the submerged state; B: bulrush; settings: treatment dosage 320 g/ha
Summary of the method: as §3

black-grass = assay: Test Example 3: weedkilling efficacy through soil treatment; H: black-grass; settings: soil treatment, treatment dosage 320 g/ha
Summary of the method: as §1

Italian ryegrass = assay: Test Example 3: weedkilling efficacy through soil treatment; I: Italian ryegrass; settings: soil treatment, treatment dosage 320 g/ha
Summary of the method: as §1

wild oat = assay: Test Example 3: weedkilling efficacy through soil treatment; G: wild oat; settings: soil treatment, treatment dosage 320 g/ha
Summary of the method: as §1

fig-leafed goosefoot = assay: Test Example 3: weedkilling efficacy through soil treatment; M: fig-leafed goosefoot; settings: soil treatment, treatment dosage 320 g/ha
Summary of the method: as §1

birds-eye speedwell = assay: Test Example 3: weedkilling efficacy through soil treatment; p: birds-eye speedwell; settings: soil treatment, treatment dosage 320 g/ha
Summary of the method: as §1

barnyard grass [6] = assay: Test Example 2: weedkilling efficacy, growth period weed treatment in the submerged state; A: barnyard grass; settings: treatment dosage 320 g/ha
Summary of the method: as §3

Indian mallow = assay: Test Example 3: weedkilling efficacy through soil treatment; K: Indian mallow; settings: soil treatment, treatment dosage 320 g/ha
Summary of the method: as §1

catchweed = assay: Test Example 3: weedkilling efficacy through soil treatment; O: catchweed; settings: soil treatment, treatment dosage 320 g/ha
Summary of the method: as §1

barnyard grass [7] = assay: Test Example 3: weedkilling efficacy through soil treatment; F: barnyard grass; settings: soil treatment, treatment dosage 320 g/ha
Summary of the method: as §1

SMILES | f: beet, effect on crop grade (beet) | N: chickweed, weedkilling efficacy grade (chickweed) | A: barnyard grass, weed kill grade (barnyard grass [1]) | C (oval-leafed pondweed) weedkilling efficacy grade (oval-leafed pondweed [2]) | L: redroot pigweed, weedkilling efficacy grade (redroot pigweed) | d: soybean, effect on crop grade (soybean) | J: common wind-grass, weedkilling efficacy grade (common wind-grass) | D: crabgrass, weedkilling efficacy grade (crabgrass) | C: oval-leafed pondweed, weed kill grade (oval-leafed pondweed [3]) | E: green foxtail, weedkilling efficacy grade (green foxtail) | b: directly sown rice, effect on crop grade (directly sown rice) | c: corn, effect on crop grade (corn) | a: transplanted rice, effect on crop grade (transplanted rice) | B: bulrush, weed kill grade (bulrush [4]) | e: wheat, effect on crop grade (wheat) | g: rapeseed, effect on crop grade (rapeseed) | B (bulrush) weedkilling efficacy grade (bulrush [5]) | H: black-grass, weedkilling efficacy grade (black-grass) | I: Italian ryegrass, weedkilling efficacy grade (Italian ryegrass) | G: wild oat, weedkilling efficacy grade (wild oat) | other results
CSc1nnc(NC(=O)C(C)(C)N2COCN(c3ccccc3)C2=O)s1 [A-1-15] | 0 (weed kill ratio 5% or less (practically no effect)) | 0 (weed kill ratio 5% or less (practically no effect)) | 4 (weed kill ratio 70% or more, less than 90%) | 5 (weed kill ratio 90% or more, (practically complete withering)) | 0 (weed kill ratio 5% or less (practically no effect)) | 0 (weed kill ratio 5% or less (practically no effect)) | 5 (weed kill ratio 90% or more, (practically complete withering)) | 0 (weed kill ratio 5% or less (practically no effect)) | 5 (weed kill ratio 90% or more, (practically complete withering)) | 0 (weed kill ratio 5% or less (practically no effect)) | 0 (weed kill ratio 5% or less (practically no effect)) | 0 (weed kill ratio 5% or less (practically no effect)) | 0 (weed kill ratio 5% or less (practically no effect)) | 5 (weed kill ratio 90% or more, (practically complete withering)) | 0 (weed kill ratio 5% or less (practically no effect)) | 1 (weed kill ratio 5% or more, less than 20%) | 5 (weed kill ratio 90% or more, (practically complete withering)) | 1 (weed kill ratio 5% or more, less than 20%) | 4 (weed kill ratio 70% or more, less than 90%) | 0 (weed kill ratio 5% or less (practically no effect)) | M: fig-leafed goosefoot, weedkilling efficacy grade (fig-leafed goosefoot): 0 (weed kill ratio 5% or less (practically no effect)); P: birds-eye speedwell, weedkilling efficacy grade (birds-eye speedwell): 3 (weed kill ratio 40% or more, less than 70%); A (barnyard grass) weedkilling efficacy grade (barnyard grass [6]): 3 (weed kill ratio 40% or more, less than 70%); K: Indian mallow, weedkilling efficacy grade (Indian mallow): 0 (weed kill ratio 5% or less (practically no effect)); O: catchweed, weedkilling efficacy grade (catchweed): 0 (weed kill ratio 5% or less (practically no effect)); F: barnyard grass, weedkilling efficacy grade (barnyard grass [7]): 0 (weed kill ratio 5% or less (practically no effect))
Cc1nsc(NC(=O)C(C)(C)N2COCN(c3ccccc3)C2=O)n1 [A-1-18] | 1 (weed kill ratio 5% or more, less than 20%) | 2 (weed kill ratio 20% or more, less than 40%) | 5 (weed kill ratio 90% or more, (practically complete withering)) | 5 (weed kill ratio 90% or more, (practically complete withering)) | 4 (weed kill ratio 70% or more, less than 90%) | 4 (weed kill ratio 70% or more, less than 90%) | 5 (weed kill ratio 90% or more, (practically complete withering)) | 5 (weed kill ratio 90% or more, (practically complete withering)) | 5 (weed kill ratio 90% or more, (practically complete withering)) | 5 (weed kill ratio 90% or more, (practically complete withering)) | 5 (weed kill ratio 90% or more, (practically complete withering)) | 0 (weed kill ratio 5% or less (practically no effect)) | 2 (weed kill ratio 20% or more, less than 40%) | 5 (weed kill ratio 90% or more, (practically complete withering)) | 0 (weed kill ratio 5% or less (practically no effect)) | 4 (weed kill ratio 70% or more, less than 90%) | 5 (weed kill ratio 90% or more, (practically complete withering)) | 5 (weed kill ratio 90% or more, (practically complete withering)) | 5 (weed kill ratio 90% or more, (practically complete withering)) | 4 (weed kill ratio 70% or more, less than 90%) | M: fig-leafed goosefoot, weedkilling efficacy grade (fig-leafed goosefoot): 4 (weed kill ratio 70% or more, less than 90%); P: birds-eye speedwell, weedkilling efficacy grade (birds-eye speedwell): 4 (weed kill ratio 70% or more, less than 90%); A (barnyard grass) weedkilling efficacy grade (barnyard grass [6]): 3 (weed kill ratio 40% or more, less than 70%); K: Indian mallow, weedkilling efficacy grade (Indian mallow): 0 (weed kill ratio 5% or less (practically no effect)); O: catchweed, weedkilling efficacy grade (catchweed): 0 (weed kill ratio 5% or less (practically no effect)); F: barnyard grass, weedkilling efficacy grade (barnyard grass [7]): 4 (weed kill ratio 70% or more, less than 90%)
CC(C)(C(=O)Nc1ccc(F)cn1)N1COCN(c2ccccc2)C1=O [A-2-04] | 0 (weed kill ratio 5% or less (practically no effect)) | 2 (weed kill ratio 20% or more, less than 40%) | 4 (weed kill ratio 70% or more, less than 90%) | 4 (weed kill ratio 70% or more, less than 90%) | 0 (weed kill ratio 5% or less (practically no effect)) | 0 (weed kill ratio 5% or less (practically no effect)) | 4 (weed kill ratio 70% or more, less than 90%) | 3 (weed kill ratio 40% or more, less than 70%) | 4 (weed kill ratio 70% or more, less than 90%) | 3 (weed kill ratio 40% or more, less than 70%) | 0 (weed kill ratio 5% or less (practically no effect)) | 0 (weed kill ratio 5% or less (practically no effect)) | 0 (weed kill ratio 5% or less (practically no effect)) | 5 (weed kill ratio 90% or more, (practically complete withering)) | 0 (weed kill ratio 5% or less (practically no effect)) | 0 (weed kill ratio 5% or less (practically no effect)) | 5 (weed kill ratio 90% or more, (practically complete withering)) | 2 (weed kill ratio 20% or more, less than 40%) | 3 (weed kill ratio 40% or more, less than 70%) | 0 (weed kill ratio 5% or less (practically no effect)) | M: fig-leafed goosefoot, weedkilling efficacy grade (fig-leafed goosefoot): 0 (weed kill ratio 5% or less (practically no effect)); P: birds-eye speedwell, weedkilling efficacy grade (birds-eye speedwell): 0 (weed kill ratio 5% or less (practically no effect)); A (barnyard grass) weedkilling efficacy grade (barnyard grass [6]): 5 (weed kill ratio 90% or more, (practically complete withering)); K: Indian mallow, weedkilling efficacy grade (Indian mallow): 0 (weed kill ratio 5% or less (practically no effect)); O: catchweed, weedkilling efficacy grade (catchweed): 0 (weed kill ratio 5% or less (practically no effect)); F: barnyard grass, weedkilling efficacy grade (barnyard grass [7]): 3 (weed kill ratio 40% or more, less than 70%)
